From article PMC10653066 (ACS Omega, 2023)
Like-named read-outs stand apart in the source and are kept apart here.

Experiments:
YFV 17D [1] = assay: microbe, parasite or virus in culture; format: cell-based, Yellow fever virus; details: for EC50: Yellow fever virus, Huh-7, read-out: EC50 (YFV 17D, μM)
YFV 17D [2] = details: read-out: EC50 against YFV; cited from earlier work

Compound: N#Cc1c(Nc2ccc(F)c(F)c2)n[nH]c1NS(=O)(=O)c1ccc2ccccc2c1 [RCB16004, N-(4-Cyano-3-((3,4-difluorophenyl)amino)-1H-pyrazol-5-yl)naphthalene-2-sulfonamide]
- EC50 (YFV 17D [1]): > 36 µM

Compound: N#Cc1c(Nc2ccc(Cl)cc2)n[nH]c1NS(=O)(=O)c1ccc2ccccc2c1 [RCB16002, N-(3-((4-Chlorophenyl)amino)-4-cyano-1H-pyrazol-5-yl)naphthalene-2-sulfonamide]
- EC50 (YFV 17D [1]): 7.1 µM

Compound: 4-((1-((6-Acetylnaphthalen-1-yl)sulfonyl)-5-amino-1H-1,2,4-triazol-3-yl)amino)benzonitrile [RCB22056]
- activity against YFV (words, SAR discussion) (YFV 17D [1]): inactive

Compound: N#Cc1c(Nc2ccc(F)cc2)n[nH]c1NS(=O)(=O)c1ccc2ccccc2c1 [RCB16003, N-(4-Cyano-3-((4-fluorophenyl)amino)-1H-pyrazol-5-yl)naphthalene-2-sulfonamide]
- EC50 (YFV 17D [2]): 3.2 µM

Compound: COc1ccc(Nc2nc(N)n(S(=O)(=O)c3cccc4ccccc34)n2)cc1 [RCB16086, N^3-(4-Methoxyphenyl)-1-(naphthalen-1-ylsulfonyl)-1H-1,2,4-triazole-3,5-diamine]
- activity against YFV (words, SAR discussion) (YFV 17D [1]): complete loss of potency

Compound: Nc1nc(Nc2ccc(Cl)c(Cl)c2)n(S(=O)(=O)c2ccc3ccccc3c2)n1 [RCB17160, N^5-(3,4-Dichlorophenyl)-1-(naphthalen-2-ylsulfonyl)-1H-1,2,4-triazole-3,5-diamine]
- activity against YFV (words, SAR discussion) (YFV 17D [1]): did not display any activity

Compound: CC(=O)c1ccc2c(S(=O)(=O)n3nc(Nc4ccc(C#N)c(Cl)c4)nc3N)cccc2c1 [RCB22055, 4-((1-((6-Acetylnaphthalen-1-yl)sulfonyl)-5-amino-1H-1,2,4-triazol-3-yl)amino)-2-chlorobenzonitrile]
- activity against YFV (words, SAR discussion) (YFV 17D [1]): low micromolar activity
